Laboratory results: patent US8901118B2, “Compounds and methods for kinase modulation, and indications therefor” (Plexxikon Inc., priority 2010, dated 2014)

Experiments:
Flt-3 kinase = biological target: T1, Flt-3 kinase (Homo sapiens, UniProt P36888); assay: Flt-3 kinase biochemical activity assay (AlphaScreen); conditions: 100 μM ATP; read-out: Biochemical Inhibition IC50 Flt3
T1 sequence (P36888 27-993): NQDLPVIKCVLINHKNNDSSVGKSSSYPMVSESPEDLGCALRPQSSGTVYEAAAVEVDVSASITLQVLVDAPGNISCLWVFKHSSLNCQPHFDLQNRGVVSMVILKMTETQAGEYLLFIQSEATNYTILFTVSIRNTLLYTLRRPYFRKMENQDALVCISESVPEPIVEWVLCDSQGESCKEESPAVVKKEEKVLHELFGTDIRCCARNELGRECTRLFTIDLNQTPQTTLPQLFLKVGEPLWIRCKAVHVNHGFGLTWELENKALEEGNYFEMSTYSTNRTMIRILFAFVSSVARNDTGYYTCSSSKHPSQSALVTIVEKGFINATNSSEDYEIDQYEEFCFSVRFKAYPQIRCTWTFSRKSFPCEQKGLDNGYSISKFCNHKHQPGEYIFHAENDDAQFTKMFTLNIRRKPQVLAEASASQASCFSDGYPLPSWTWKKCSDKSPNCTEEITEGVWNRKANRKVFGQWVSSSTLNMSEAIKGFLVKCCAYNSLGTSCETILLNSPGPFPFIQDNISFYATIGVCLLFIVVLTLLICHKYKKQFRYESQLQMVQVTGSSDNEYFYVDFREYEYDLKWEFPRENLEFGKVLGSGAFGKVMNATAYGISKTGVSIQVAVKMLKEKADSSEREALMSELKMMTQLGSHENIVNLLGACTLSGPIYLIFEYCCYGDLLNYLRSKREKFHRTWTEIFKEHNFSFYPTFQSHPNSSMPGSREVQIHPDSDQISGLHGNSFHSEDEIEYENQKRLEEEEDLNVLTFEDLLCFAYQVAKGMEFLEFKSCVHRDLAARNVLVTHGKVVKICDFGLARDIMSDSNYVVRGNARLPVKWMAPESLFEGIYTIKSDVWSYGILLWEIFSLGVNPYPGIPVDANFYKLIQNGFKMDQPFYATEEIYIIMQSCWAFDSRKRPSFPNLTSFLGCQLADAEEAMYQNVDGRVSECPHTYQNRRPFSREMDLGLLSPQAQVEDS
Experimental: In one assay the biochemical activity IC50 values are determined with respect to inhibition of Flt-3 kinase activity, where inhibition of phosphorylation of a peptide substrate is measured as a function of compound concentration. Compounds to be tested, dissolved in DMSO (1 μL), are added to a white 384-well plate (Costar #3705). Working stocks of Flt-3 kinase (Invitrogen), biotin-(E4Y)10 substrate (Upstate Biotech, Cat#12-440), and ATP (Sigma, Cat#A-3377) are prepared in 25 mM Hepes pH 7.5, 5 mM MgCl2, 5 mM MnCl2, 1 mM DTT, and 0.01% Tween-20. All components are added to the 384-well plate for a final concentration of 1 ng/well Flt-3, 30 nM biotin-(E4Y)10 and 100 μM ATP in a volume of 20 μL. Each sample is at 5% DMSO. The plate is then incubated for 1 hour at room temperature. Just before use, working stocks of donor and acceptor beads from the AlphaScreen PY20 Detection Kit (PerkinElmer, Cat#676601M) are prepared in 25 mM Hepes pH 7.5, pH 7.4, 100 mM EDTA. 0.3% BSA. To stop the reaction, the plate is uncovered in the dark and 5 μL of Donor Beads solution (Streptavidin beads) is added to each well. The plate is incubated at room temperature for 20 minutes. Five microliters of Acceptor Beads solution (PY20 coated beads) are then added to each well. The final concentration of each bead is 10 μg/mL. The plates are incubated at room temperature for 60 minutes. Fluorescence signal is recorded on the Envision reader. Phosphorylated substrate results in binding of the PY20 antibody and association of the donor and acceptor beads such that signal correlates with kinase activity. The signal vs. compound concentration is used to determine the IC50.

TrkA kinase = TrkA kinase (Homo sapiens, UniProt P04629); assay: TrkA kinase biochemical activity assay (AlphaScreen); conditions: 100 μM ATP; read-out: Biochemical Inhibition IC50 TrkA
Summary of the method: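 IC50 values come from AlphaScreen PY20/streptavidin bead signal versus compound concentration. Kinase reaction: 1 ng/well TrkA, 100 μM ATP, 30 nM biotin-(E4Y)10 substrate, Mn2+-containing Hepes buffer pH 7.5, 5% DMSO, 40 min, room temperature; TrkC assayed by the same approach.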

Chain of TrkA kinase (P04629 33-796): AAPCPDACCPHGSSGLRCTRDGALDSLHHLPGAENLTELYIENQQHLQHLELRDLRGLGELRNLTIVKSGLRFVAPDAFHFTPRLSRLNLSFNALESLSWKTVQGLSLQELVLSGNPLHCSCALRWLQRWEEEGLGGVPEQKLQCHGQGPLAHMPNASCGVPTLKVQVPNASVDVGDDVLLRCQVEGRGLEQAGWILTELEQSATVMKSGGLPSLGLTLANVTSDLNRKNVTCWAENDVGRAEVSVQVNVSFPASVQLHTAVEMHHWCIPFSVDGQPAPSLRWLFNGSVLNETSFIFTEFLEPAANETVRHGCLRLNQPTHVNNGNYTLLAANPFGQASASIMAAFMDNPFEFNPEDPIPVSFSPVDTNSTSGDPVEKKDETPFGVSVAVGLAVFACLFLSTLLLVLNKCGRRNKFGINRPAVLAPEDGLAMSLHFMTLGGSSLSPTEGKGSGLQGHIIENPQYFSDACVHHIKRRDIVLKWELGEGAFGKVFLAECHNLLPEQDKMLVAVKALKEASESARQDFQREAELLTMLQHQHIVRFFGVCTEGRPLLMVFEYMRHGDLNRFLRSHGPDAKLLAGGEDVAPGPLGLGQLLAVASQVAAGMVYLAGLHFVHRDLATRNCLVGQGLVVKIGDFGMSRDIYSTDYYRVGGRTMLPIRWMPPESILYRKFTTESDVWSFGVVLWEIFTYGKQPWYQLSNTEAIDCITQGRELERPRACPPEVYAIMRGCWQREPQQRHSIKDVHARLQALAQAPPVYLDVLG

Row | SMILES | IC50 (Flt-3 kinase) [nM] | IC50 (TrkA kinase) [nM]
1 | CCc1ccc(Nc2ncc(Cc3c[nH]c4ncc(C)cc34)cn2)cc1 [Compound P-3025, (4-Ethyl-phenyl)-[5-(5-methyl-1H-pyrrolo[2,3-b]pyridin-3-ylmethyl)-pyrimidin-2-yl]-amine] | < 10 | < 100
2 | CCOc1ccc(Nc2ccc(Cc3c[nH]c4ncnc(C5CC5)c34)c(F)n2)cn1 [Compound P-4026, [5-(4-Cyclopropyl-7H-pyrrolo[2,3-d]pyrimidin-5-ylmethyl)-6-fluoro-pyridin-2-yl]-(6-ethoxy-pyridin-3-yl)-amine] | < 100 | < 10
3 | CCn1ccc(Nc2ncc(Cc3c[nH]c4ncc(C)cc34)cn2)n1 [Compound P-3035, (1-Ethyl-1H-pyrazol-3-yl)-[5-(5-methyl-1H-pyrrolo[2,3-b]pyridin-3-ylmethyl)-pyrimidin-2-yl]-amine] | < 100 | < 1000
4 | CCOc1ncnc2[nH]cc(Cc3ccc(Nc4cccnc4)nc3F)c12 [Compound P-4021, [5-(4-Ethoxy-7H-pyrrolo[2,3-d]pyrimidin-5-ylmethyl)-6-fluoro-pyridin-2-yl]-pyridin-3-yl-amine] | > 1000 | < 1000
5 | Cc1cnc2[nH]cc(Cc3ccc(Nc4ccc(C)nc4)nc3F)c2c1 [Compound P-3041, [6-Fluoro-5-(5-methyl-1H-pyrrolo[2,3-b]pyridin-3-ylmethyl)-pyridin-2-yl]-(6-methyl-pyridin-3-yl)-amine] | < 1000 | < 1000
6 | COc1cc(Nc2ncc(Cc3c[nH]c4ncc(C)cc34)cn2)ccc1F [Compound P-3022, (4-Fluoro-3-methoxy-phenyl)-[5-(5-methyl-1H-pyrrolo[2,3-b]pyridin-3-ylmethyl)-pyrimidin-2-yl]-amine] | < 100 | < 1000
7 | COc1ncnc2[nH]cc(Cc3ccc(Nc4ccc(C5CC5)nc4)nc3F)c12 [Compound P-4004, (6-Cyclopropyl-pyridin-3-yl)-[6-fluoro-5-(4-methoxy-7H-pyrrolo[2,3-d]pyrimidin-5-ylmethyl)-pyridin-2-yl]-amine] | < 10 | < 100
8 | COc1ncnc2[nH]cc(Cc3ccc(Nc4ccc(C)nc4)nc3F)c12 [Compound P-4010, [6-Fluoro-5-(4-methoxy-7H-pyrrolo[2,3-d]pyrimidin-5-ylmethyl)-pyridin-2-yl]-(6-methyl-pyridin-3-yl)-amine] | < 1000 | < 1000
9 | CCn1cc(Nc2ccc(Cc3c[nH]c4ncnc(C5CC5)c34)c(F)n2)cn1 [Compound P-4036, [5-(4-Cyclopropyl-7H-pyrrolo[2,3-d]pyrimidin-5-ylmethyl)-6-fluoro-pyridin-2-yl]-(1-ethyl-1H-pyrazol-4-yl)-amine] | > 1000 | < 100
10 | CCn1cc(Nc2ccc(C(=O)c3c[nH]c4ncnc(C5CC5)c34)c(F)n2)cn1 [Compound P-4037, (4-Cyclopropyl-7H-pyrrolo[2,3-d]pyrimidin-5-yl)-[6-(1-ethyl-1H-pyrazol-4-ylamino)-2-fluoro-pyridin-3-yl]-methanone] | < 1000 | < 100
11 | Cc1ccc(Nc2ccc(Cc3c[nH]c4ncnc(C5CC5)c34)c(F)n2)cn1 [Compound P-4030, [5-(4-Cyclopropyl-7H-pyrrolo[2,3-d]pyrimidin-5-ylmethyl)-6-fluoro-pyridin-2-yl]-(6-methyl-pyridin-3-yl)-amine] | < 1000 | < 100
12 | COCCOc1ncnc2[nH]cc(Cc3ccc(Nc4ccc(C)nc4)nc3F)c12 [Compound P-4015, {6-Fluoro-5-[4-(2-methoxy-ethoxy)-7H-pyrrolo[2,3-d]pyrimidin-5-ylmethyl]-pyridin-2-yl}-(6-methyl-pyridin-3-yl)-amine] | > 1000 | > 1000
13 | Cc1ccc(Nc2ccc(Cc3c[nH]c4ncc(Cl)cc34)c(F)n2)cn1 [Compound P-3042, [5-(5-Chloro-1H-pyrrolo[2,3-b]pyridin-3-ylmethyl)-6-fluoro-pyridin-2-yl]-(6-methyl-pyridin-3-yl)-amine] | < 1000 | < 100
14 | COc1ccc(Nc2ncc(Cc3c[nH]c4ncc(C)cc34)cn2)cc1 [Compound P-3021, (4-Methoxy-phenyl)-[5-(5-methyl-1H-pyrrolo[2,3-b]pyridin-3-ylmethyl)-pyrimidin-2-yl]-amine] | < 10 | < 100
15 | CCOc1ccc(Nc2ncc(Cc3c[nH]c4ncc(C)cc34)cn2)cn1 [Compound P-3027, (6-Ethoxy-pyridin-3-yl)-[5-(5-methyl-1H-pyrrolo[2,3-b]pyridin-3-ylmethyl)-pyrimidin-2-yl]-amine] | < 10 | < 1000
16 | CCOc1ccc(Nc2ccc(Cc3c[nH]c4ncc(C)cc34)c(F)n2)cn1 [Compound P-3039, (6-ethoxy-pyridin-3-yl)-[6-fluoro-5-(5-methyl-1H-pyrrolo[2,3-b]pyridin-3-ylmethyl)-pyridin-2-yl]-amine] | < 100 | < 100
17 | CCCOc1ccc(Nc2ncc(Cc3c[nH]c4ncc(C)cc34)cn2)cc1 [Compound P-3024, [5-(5-Methyl-1H-pyrrolo[2,3-b]pyridin-3-ylmethyl)-pyrimidin-2-yl]-(4-propoxy-phenyl)-amine] | < 10 | < 1000
18 | COc1ccc(Nc2ccc(Cc3c[nH]c4ncnc(OC)c34)c(F)n2)cn1 [Compound P-4001, [6-Fluoro-5-(4-methoxy-7H-pyrrolo[2,3-d]pyrimidin-5-ylmethyl)-pyridin-2-yl]-(6-methoxy-pyridin-3-yl)-amine] | < 1000 | < 100
19 | Fc1cccc(Nc2ncc(Cc3c[nH]c4ncc(Cl)cc34)cn2)c1 [Compound P-3017, [5-(5-Chloro-1H-pyrrolo[2,3-b]pyridin-3-ylmethyl)-pyrimidin-2-yl]-(3-fluoro-phenyl)-amine] | < 100 | > 1000
20 | Cc1ccc(Nc2ccc(C(=O)c3c[nH]c4ncnc(C5CC5)c34)c(F)n2)cn1 [Compound P-4031, (4-Cyclopropyl-7H-pyrrolo[2,3-d]pyrimidin-5-yl)-[2-fluoro-6-(6-methyl-pyridin-3-ylamino)-pyridin-3-yl]-methanone] | < 100 | < 100
21 | CCOc1ncnc2[nH]cc(Cc3ccc(Nc4ccc(Br)nc4)nc3F)c12 [Compound P-4020, (6-Bromo-pyridin-3-yl)-[5-(4-ethoxy-7H-pyrrolo[2,3-d]pyrimidin-5-ylmethyl)-6-fluoro-pyridin-2-yl]-amine] | < 100 | < 10
22 | CCOc1ccc(Nc2ccc(C(=O)c3c[nH]c4ncc(C)cc34)c(F)n2)cn1 [Compound P-3045, [6-(6-ethoxy-pyridin-3-ylamino)-2-fluoro-pyridin-3-yl]-(5-methyl-1H-pyrrolo[2,3-b]pyridin-3-yl)-methanone] | < 100 | < 10
23 | COc1ccc(Nc2ccc(Cc3c[nH]c4ncc(C)cc34)c(F)n2)cn1 [Compound P-3019, [6-fluoro-5-(5-methyl-1H-pyrrolo[2,3-b]pyridin-3-ylmethyl)-pyridin-2-yl]-(6-methoxy-pyridin-3-yl)-amine] | < 1000 | < 100
24 | FC1(F)CCC(Nc2ncc(Cc3c[nH]c4ncc(Cl)cc34)cn2)CC1 [Compound P-3004] | > 1000 | –
